From patent publication US4769364A, “Pyrimidin-5-yl phosphoric acid ester and thionophosphoric acid ester pesticides” (priority 1985, dated 1988)

Legend:
[1] = test system: Phorbia antiqua maggots; assay: Critical concentration test/soil insects: Phorbia antiqua maggots (in the soil); format: in vivo; settings: 2.5 ppm active compound in soil; 2 to 7 days; 100% = all test insects killed
Description: (§1) Critical concentration test/soil insects
Test insect: Phorbia antiqua maggots (in the soil)
(§2) Solvent: 3 parts by weight of acetone
Emulsifier: 1 part by weight alkylaryl polyglycol ether.
(§3) To produce a suitable preparation of active compound, 1 part by weight of active compound is mixed with the stated amount of solvent, the stated amount of emulsifier is added and the concentrate is diluted with water to the desired concentration.
(§4) The preparation of active compound is intimately mixed with soil. The concentration of the active compound in the preparation is of practically no importance, only the amount by weight of active compound per unit volume of soil, which is given in ppm (=mg/liter) being decisive. The soil is filled into pots and the pots are left to stand at room temperature.
After 24 hours, the test insects are introduced into the treated soil, and after a further 2 to 7 days the degree of effectiveness of the active compound is determined in % by counting the dead and live test insects. The degree of effeciveness is 100% if all the test insects have been killed and is 0% if just as many test insects are still alive as in the case of the untreated control.

[2] = test system: Meloidogyne incognita; assay: Critical concentration test/nematodes: Meloidogyne incognita; format: in vivo; settings: 20 ppm active compound in soil; lettuce, four weeks, 27° C.; 100% = infestation completely avoided
Description: Critical concentraion test/nematodes
Test nematode: Meloidogyne incognita
as §2
(§5) Emulsifier: 1 part by weight of alkylaryl polyglycol ether.
as §3
The preparation of active compound is intimately mixed with soil which is heavily infested with the test nematodes. The concentration of the active compound in the preparation is of practically no importance, only the amount of active compound per unit volume of soil, which is given in ppm, being decisive. The treated soil is filled into pots, lettuce is sown in and the pots are kept at a greenhouse temperature of 27° C.
After four weeks, the lettuce roots are examined for infestation with nematodes (root galls), and the degree of effectiveness of the active compound is determined in %. The degree of effectiveness is 100% if infestation is completely avoided and is 0% if the infestation is just as high as in the case of the control plants in untreated soil which has been infested in the same manner.

[3] = test system: Diabrotica balteata larvae; assay: Critical concentration test/soil insects: Diabrotica balteata larvae in the soil; format: in vivo; settings: 168 h, 2.5 ppm active compound in soil, after a further 7 days, 100% = all test insects killed, read-out: degree of effectiveness
Description: as §1
Test insect: Diabrotica balteata larvae in the soil
as §2, §5, §3
as §4, with “into 0.5 liter” for “into”, “these” for “the pots”, “20° C.” for “room temperature.”
Immediately after setting up the test, 6 pregerminated grains of corn are placed in each pot. After 2 days, the corresponding test insects are introduced into the treated soil. After a further 7 days the degree of effectiveness of the active compound is determined in % by counting the dead and live test insects. The degree of effectiveness is 100% if all the test insects have been killed and is 0% if just as many test insects are still alive as in the case of the untreated control.

[4] = Toxicity to warm-blooded animals, LD50 on rats (oral); settings: rat, in vivo, oral (stomach tube), dissolved in polyethylene glycol LUTROL
Description: Toxicity to warm-blooded animals, LD50 values on rats (oral)
The values were determined in the customary manner. The active compounds were dissolved in polyethylene glycol LUTROL (trademark of BASF AG, Ludwigshafen, Federal Republic of Germany) and the solution was administered to rats with a stomach tube.

[5] = test system: Psoroptes ovis; assay: Test with Psoroptes ovis; format: in vivo; settings: 10 ppm active compound, 24 hours, read-out: destruction
Description: 35 parts by weight of ethylene glycol monomethyl ether
35 parts by weight of nonylphenol polyglycol ether
To produce a suitable preparation of active compound, three parts by weight of active compound are mixed with seven parts by weight of the abovementioned solvent mixture and the concentrate thus obtained is diluted with water to the desired concentration.
About 10-25 Psoroptes ovis are introduced into 1 ml of the active compound preparation to be tested, this having been pipetted into tablet nests of a deep-drawn package. After 24 hours, the degree of destruction is determined.

[6] = test system: Lucilia cuprina OP res. larvae; assay: Test with Lucilia cuprina OP res. larvae; format: in vivo; settings: 10 ppm active compound, 24 hours, read-out: destruction
Description: Test with Lucilia cuprina OP res. larvae
35 parts by weight of ethylene glycol monoethyl ether
35 parts by weight of nonylphenol polyglycol ether.
To produce a suitable preparation of active compound, three parts by weight of active compound are mixed with seven parts by weight of the abovementioned solvent mixture and the concentrate thus obtained is diluted with water to the particular desired concentration.
About 20 Lucilia cuprina res. larvae are introduced into a test tube which contains approx. 1 cm^2 of horse muscle and 0.5 ml of the preparation of active compound. After 24 hours, the degree of destruction is determined.

Question: With CCCOP(=S)(OCC)Oc1cnc(C(C)C)nc1 (stereo not shown) [known compound (B), reference compound] as the compound, how does the degree of effectiveness [1] read?
Answer: 100%

Question: What about the degree of effectiveness [2] of the same compound?
Answer: 95%

Question: For CCOP(=S)(OCC(F)(F)F)Oc1cnc(C(C)(C)C)nc1 (stereo not shown) [Example 1, O-ethyl O-(2,2,2-trifluoroethyl) O-(2-tert.-butyl-pyrimidin-5-yl)thionophosphate], which degree of effectiveness [1] is on record?
Answer: 95%

Question: And the mortality at 2.5 ppm [3]?
Answer: 100%

Question: What about the degree of effectiveness [2] of the same compound?
Answer: 95%

Question: What about the LD50 [4] of the same compound?
Answer: 100 to 250 mg/kg

Question: Which degree of effectiveness [1] does the source give for CCOP(=S)(OCC)Oc1cnc(C(C)(C)C)nc1 [Comparison compound (A), reference compound] here?
Answer: 100%

Question: What about the mortality at 2.5 ppm [3] of the same compound?
Answer: 100%

Question: What about the degree of effectiveness [2] of the same compound?
Answer: 100%

Question: And the LD50 [4]?
Answer: 1 to 2.5 mg/kg

Question: Which mortality at 10 ppm [5] does the source give for CCOP(=S)(OCC(F)(F)C(F)F)Oc1cnc(C(C)(C)C)nc1 (stereo not shown) [Example 2] here?
Answer: 100%

Question: What about the degree of effectiveness [1] of the same compound?
Answer: 100%

Question: And the mortality at 2.5 ppm [3]?
Answer: 100%

Question: What about the degree of effectiveness [2] of the same compound?
Answer: 100%

Question: What about the mortality at 10 ppm [6] of the same compound?
Answer: 100%

Question: And the LD50 [4]?
Answer: 50 mg/kg
